Test results published in paper PMC3549253, “Effect of repetitive lysine–tryptophan motifs on the bactericidal activity of antimicrobial peptides” (Amino Acids, 2012).
≈ marks a conversion by molar mass, not a printed value. Read-outs that look alike come from different tables or passages of the source.

Assays:
[1] = test system: S. typhimurium CCARM 8009; experiment: microbe, parasite or virus in culture; type: cell-based, Salmonella typhimurium; settings: drug-resistant strain, 2 × 10^5 CFU/ml, 24 h at 37° C, average of 3–4 independent experiments, read-out: MIC
From the text: (§1) Escherichia coli (KCTC 1682), Salmonella typhimurium (KCTC 1926), Pseudomonas aeruginosa (KCTC 1637), Staphylococcus aureus (KCTC 1621), Bacillus subtilis (KCTC 1918), and Listeria monocytogenes (KCTC 3710) were obtained from the Korean Collection for Type Cultures (KCTC). Drug-resistant E. coli strains (CCARM 1229 and CCARM 1238), S. typhimurium strains (CCARM 8007, CCARM 8009, and CCARM 8013), and S. aureus strains (CCARM 3089, CCARM 3090, CCARM 3108, CCARM 3114, and CCARM 3126) were from the Culture Collection of Antibiotic-Resistant Microbes (CCARM) at Seoul Women’s University, Korea.
(§2) The antibacterial activities of the peptides against Gram-negative, Gram-positive and antibiotic-resistant bacterial strains were evaluated using the microbroth dilution method (Park et al. [2003]). Aliquots of culture medium containing bacterial suspensions in mid-logarithmic phase at a concentration of 2 × 10^5 colony forming units (CFU)/ml were added to each well of a multiwell plate containing peptide solution serially diluted 2× in 10 mM sodium phosphate buffer (pH 7.2) or phosphate-buffered saline (PBS, 1.5 mM KH2PO4, 2.7 mM KCl, 8.1 mM Na2HPO4, 150 mM NaCl, pH 7.2). Growth inhibition was evaluated by measuring the absorbance at 620 nm using a Versa-Max microplate Elisa Reader (Molecular Devices Co., Sunnyvale, CA, USA) after 24 h of incubation at 37° C. […] All MIC measurements were the average of 3–4 independent experiments.

[2] = test system: S. typhimurium CCARM 8007; experiment: microbe, parasite or virus in culture; type: cell-based, Salmonella typhimurium; settings: drug-resistant strain, 2 × 10^5 CFU/ml, 24 h at 37° C, average of 3–4 independent experiments, read-out: MIC
From the text: as §1, §2

[3] = test system: S. typhimurium CCARM 8013; experiment: microbe, parasite or virus in culture; type: cell-based, Salmonella typhimurium; settings: drug-resistant strain, 2 × 10^5 CFU/ml, 24 h at 37° C, average of 3–4 independent experiments, read-out: MIC
From the text: as §1, §2

[4] = test system: all 16 microbial strains; experiment: Mean MIC over all strains and therapeutic index; type: cell-based; settings: MIC values in PBS from all 16 microbial strains; 400 μM used when no activity at 200 μM
Method: (§3) The antibacterial activities of the peptides against Gram-negative, Gram-positive and antibiotic-resistant bacterial strains were evaluated using the microbroth dilution method (Park et al. [2003]). Aliquots of culture medium containing bacterial suspensions in mid-logarithmic phase at a concentration of 2 × 10^5 colony forming units (CFU)/ml were added to each well of a multiwell plate containing peptide solution serially diluted 2× in 10 mM sodium phosphate buffer (pH 7.2) or phosphate-buffered saline (PBS, 1.5 mM KH2PO4, 2.7 mM KCl, 8.1 mM Na2HPO4, 150 mM NaCl, pH 7.2). Growth inhibition was evaluated by measuring the absorbance at 620 nm using a Versa-Max microplate Elisa Reader (Molecular Devices Co., Sunnyvale, CA, USA) after 24 h of incubation at 37° C.

[5] = test system: S. aureus CCARM 3108; experiment: microbe, parasite or virus in culture; type: cell-based, Staphylococcus aureus; settings: drug-resistant strain, 2 × 10^5 CFU/ml, 24 h at 37° C, average of 3–4 independent experiments
From the text: as §1, §2

[6] = test system: S. aureus CCARM 3089; experiment: microbe, parasite or virus in culture; type: cell-based, Staphylococcus aureus; settings: drug-resistant strain, 2 × 10^5 CFU/ml, 24 h at 37° C, average of 3–4 independent experiments
From the text: as §1, §2

[7] = test system: S. aureus CCARM 3114; experiment: microbe, parasite or virus in culture; type: cell-based, Staphylococcus aureus; settings: drug-resistant strain, 2 × 10^5 CFU/ml, 24 h at 37° C, average of 3–4 independent experiments
From the text: as §1, §2

[8] = test system: S. aureus CCARM 3090; experiment: microbe, parasite or virus in culture; type: cell-based, Staphylococcus aureus; settings: drug-resistant strain, 2 × 10^5 CFU/ml, 24 h at 37° C, average of 3–4 independent experiments
From the text: as §1, §2

[9] = test system: E. coli CCARM 1238; experiment: microbe, parasite or virus in culture; type: cell-based, Escherichia coli; settings: drug-resistant strain, 2 × 10^5 CFU/ml, 24 h at 37° C, average of 3–4 independent experiments
From the text: as §1, §2

[10] = test system: S. aureus CCARM 3126; experiment: microbe, parasite or virus in culture; settings: drug-resistant strain, 2 × 10^5 CFU/ml, 24 h at 37° C, average of 3–4 independent experiments
From the text: as §1, §3

[11] = 10 mM sodium phosphate buffer, pH 7.2
[12] = PBS, pH 7.2 (number in parentheses)

## CC[C@H](C)[C@H](NC(=O)CN)C(=O)NCC(=O)N[C@@H](C)C(=O)N[C@H](C(=O)N[C@@H](CC(C)C)C(=O)N[C@@H](CCCCN)C(=O)N[C@H](C(=O)N[C@@H](CC(C)C)C(=O)N[C@H](C(=O)N[C@H](C(=O)NCC(=O)N[C@@H](CC(C)C)C(=O)N1CCC[C@H]1C(=O)N[C@@H](C)C(=O)N[C@@H](CC(C)C)C(=O)N[C@H](C(=O)N[C@@H](CO)C(=O)N[C@@H](Cc1c[nH]c2ccccc12)C(=O)N[C@H](C(=O)N[C@@H](CCCCN)C(=O)N[C@@H](CCCNC(=N)N)C(=O)N[C@@H](CCCCN)C(=O)N[C@@H](CCCNC(=N)N)C(=O)N[C@@H](CCC(N)=O)C(=O)N[C@@H](CCC(N)=O)C(N)=O)[C@@H](C)CC)[C@@H](C)CC)[C@@H](C)O)[C@@H](C)O)C(C)C)C(C)C [Melittin, reference compound]
[1]; [11]
  MIC: 6.25 µM (≈ 17.8 µg/mL)
[1]; [12]
  MIC: 12.5 µM (≈ 35.6 µg/mL)
[2]; [11]
  MIC: 6.25 µM (≈ 17.8 µg/mL)
[2]; [12]
  MIC: 12.5 µM (≈ 35.6 µg/mL)
[3]; [11]
  MIC: 3.12 µM (≈ 8.88 µg/mL)
[3]; [12]
  MIC: 6.25 µM (≈ 17.8 µg/mL)
[4]
  GM (geometric mean of MIC values): 3.6 µM
[5]; [11]
  MIC: 1.56 (1.56) μM
[5]; [12]
  MIC: 1.56 (1.56) μM
[6]; [11]
  MIC: 1.56 (1.56) μM
[6]; [12]
  MIC: 1.56 (1.56) μM
[7]; [11]
  MIC: 3.12 (3.12) μM
[7]; [12]
  MIC: 3.12 (3.12) μM
[8]; [11]
  MIC: 3.12 (3.12) μM
[8]; [12]
  MIC: 3.12 (3.12) μM
[9]; [11]
  MIC: 1.56 (1.56) μM
[9]; [12]
  MIC: 1.56 (1.56) μM
[10]; [11]
  MIC: 1.56 (1.56) μM
[10]; [12]
  MIC: 1.56 (1.56) μM
